From patent publication US11013726B2 (Arbutus Biopharma Corporation, priority 2016, dated 2021)

System: isolated heart
Assay: Langendorff assay
Conditions: any of the concentrations tested
Source text: (§1) The compounds of the invention disclosed in the present application were screened to evaluate their potency and toxicity profiles. Several compounds having desirable potency and toxicity profiles were identified in these screens.
In the case of COCCCOc1cc2c(nc1OC)-c1cc(=O)c(C(=O)O)cn1[C@H](C(C)C)C2 (single isomer, unassigned) [Example 22], the “effect on measured electrocardiogram parameters” value was “no effect on any of the measured electrocardiogram parameters”.

System: HBV
Assay: HBV production assay
Type: cell-based
Conditions: Hepatitis B virus, 144 h; HepG2.2.15 cells, 6 days, HBV DNA in supernatant by qPCR
Description: HepG2.2.15 cells were maintained and seeded as described above. After administration of test compounds for 6 days, supernatant was collected and clarified by low speed centrifugation. HBV DNA was released from virion in the supernatant by incubating in lysis buffer (Roche, Catalog #07248431001). HBV DNA levels were quantified by qPCR/TaqMan assay. The nucleoside analog Entecavir (ETV) was used as a control to determine inhibition of HBV virion production in the supernatant. Table 4 illustrates EC50 values obtained by the HBV production assay for selected compounds.
COCCCOc1cc2c(cc1Cl)-c1cc(=O)c(C(=O)O)cn1[C@H](C(C)C)CO2 [drawing 614] showed an EC50 of 0.009 µM.
CC(C)[C@@H]1COc2cc(OCCCO)c(Cl)cc2-c2cc(=O)c(C(=O)O)cn21 [drawing 616] gave an EC50 of 0.007 µM.
Work on COc1cc2c(cc1Cl)-c1cc(=O)c(C(=O)O)cn1C(C(C)C)CO2 (stereo not drawn) yielded an EC50 of 0.077 µM.
COc1cc2c(nc1OC)-c1cc(=O)c(C(=O)O)cn1C(C(C)C)C2 (stereo not drawn) [drawing 619] gave an EC50 of 0.002 µM.
In the case of CC(C)(C)C1Cc2cc3c(cc2-c2cc(=O)c(C(=O)O)cn21)OCCCO3 (stereo not drawn) [drawing 612], the EC50 was 0.007 µM.
CC(C)[C@@H]1COc2cc(OCCCCO)c(Cl)cc2-c2cc(=O)c(C(=O)O)cn21 [drawing 617] gave an EC50 of 0.02 µM.
Work on COCCOc1cc2c(cc1Cl)-c1cc(=O)c(C(=O)O)cn1C(C(C)C)CO2 (stereo not drawn) [drawing 618] yielded an EC50 of 0.046 µM.
Compound COCCCOc1cc2c(nc1OC)-c1cc(=O)c(C(=O)O)cn1[C@H](C(C)C)C2 [drawing 615] has an EC50 of 0.0004 µM.
For COc1cc2c(cc1Cl)-c1cc(=O)c(C(=O)O)cn1[C@H](C(C)C)CO2, the EC50 was 0.03 µM.

System: HBsAg
Assay: HBsAg assay
Type: cell-based, hepatitis B virus
Conditions: Hepatitis B virus, HepG2.2.15, 144 h, read-out: sAg EC50, μM, HepG2.2.15 cells, day 6
Outline: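 HepG2.2.15 cells were treated with serially diluted compounds (0.5% DMSO), with medium and compound renewed after 2-3 days. Secreted HBsAg measured at day 6 by chemiluminescence immunoassay; EC50 from dose-response curves. Viability assessed in parallel by CellTiter-Glo.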
With COCCCOc1cc2c(nc1OC)-c1cc(=O)c(C(=O)O)cn1[C@H](C(C)C)C2 (single isomer, unassigned) [Example 22] the EC50 was 0.002 µM.

System: not listed separately
Assay: clearance from blood plasma in dogs
Type: in vivo
Conditions: not given
Source text: as §1
With COCCCOc1cc2c(nc1OC)-c1cc(=O)c(C(=O)O)cn1[C@H](C(C)C)C2 (single isomer, unassigned) [Example 22] the “clearance from blood plasma” value was “cleared relatively slowly”.
